The nature of series [1]: APD356-009 study: M1 Cmax at Week 12 following lorcaserin 10 mg BID.
Series [2] in a line: Toxicity studies in rats (determination of NOAEL). Particulars: for Exposure multiple relative to human exposure at 10 mg BID: rats 5 mg/kg/day (NOAEL); for Exposure multiple of human exposure at 10 mg BID: rats 50 mg/kg/day for 6 months. It counts as in vivo. As for the experimental part: In rats, a single 1000 mg/kg dose caused death. […] The highest dose tested in 28-day studies, 50 mg/kg/day, was associated with increased serum lipids, centrilobular hepatocellular hypertrophy, splenic extramedullary hematopoiesis, increased pigmented macrophages, and reticulocytosis, and increased kidney weights, with minimal renal tubular epithelial hyperplasia in males only. A 13-week study and a 6-month study gave similar findings except there was no renal tubular epithelial changes and increases in kidney weights were limited to the 3-month study; the NOAEL was 5 mg/kg/day, which produced exposure multiples of 1.2 and 2.8 (males and females) relative to human exposure at a dose of 10 mg BID.
In rats but not mice, modest increases in kidney weights were reported at high dose (≧50 mg/kg) in the 10-day, 28-day and 3-month studies, but were without microscopic correlate except in the 28-day study, in which minimal renal tubular epithelial hypertrophy was reported in male rats. In the one year toxicology study in monkeys, minimal to moderate focal tubular epithelial degeneration and/or regeneration were observed. The potential clinical relevance of this finding was evaluated in two ways. First, two pathologists with expertise in human renal pathology (Helmut Rennke, M.D. and Stephen Bonsib, M.D.) independently reviewed all monkey kidney slides from the 1-year study in a blinded manner. Both reported the findings to be mild and focal, clinically unimportant, without dose relationship, and more likely related to aging, infection, or inflammation than to study drug. Secondly, renal function was monitored in clinical trials not only by measuring creatinine and BUN, but also by examining urine sediment and by calculating creatinine clearance. The urine sediment data are of limited value due to the preponderance of “dirty” urine specimens contaminated with epithelial cells and other external debris. Neither BUN nor creatinine was affected by lorcaserin. Creatinine clearance, which was calculated using both actual body weight and the preferred ideal body weight method, was also not affected by lorcaserin use of up to 2 years.

A short description of series [3]: Toxicity studies in monkeys (single dose, 28-day, 13-week, 12-month). The format is in vivo, cynomolgus monkeys. Particulars: for Exposure multiple relative to human exposure at 10 mg BID: monkeys 100 mg/kg/day. As for the experimental part:
In cynomolgus monkeys, dose-limiting emesis occurred at 300 mg/kg single dose. In repeat
In a 28-day repeat dose study, one male given 100 mg/kg/day experienced a seizure. […] Reduced weight gain and food consumption occurred in 28-day, 13-week and 12-month studies at doses ≧10 mg/kg/day. Cholesterol, LDL and HDL decreased at ≧10 mg/kg/day in the 12-month study. […] The NOAEL was considered to be 2 mg/kg/day.
This animal continued treatment on Day 2 and no further seizures were observed throughout the duration of the study. […] A reduction in serum lipids (cholesterol, HDL, and LDL) was measured in both sexes treated with ≧10 mg/kg doses of lorcaserin. Reductions in total cholesterol and LDL occurred in some animals treated with 2 mg/kg as well. There was a dose-independent reduction in the mean triglyceride concentration in both sexes at ≧2 mg/kg. Mild increases in ALT occurred primarily in females at all dose levels and in one control animal. White blood cells in the urine of some females dosed at ≧50 mg/kg/day were thought to be associated with renal tubular changes noted histologically in three out of five cases.
There were no lorcaserin-related gross findings. Histologic changes were identified in the kidneys, ovaries, and possibly in the liver. Changes in the kidney consisted of focal or multifocal tubular epithelial cell degeneration, regeneration, and cellular casts. […] The histologic renal changes attributed to lorcaserin were not associated with changes in serum chemistry or kidney function. A review of the renal findings was conducted by two expert human renal pathologists, each of whom independently read blinded slides and reached the same conclusion: the administration of lorcaserin to monkeys for 12 months was not associated with drug-related renal pathology. […] One of these pathologists attributed the potential finding of regeneration to a staining artifact resulting in a bluish cytoplasmic discoloration. […] This change was reversible after a one month drug-free interval. […] The lipidosis was not present in animals sacrificed after a one month drug-free interval. No changes were identified by the study pathologist or the peer review pathologist in the heart, heart valves, pulmonary vessels or lungs of animals given lorcaserin compared to controls.
Changes in the kidney consisted of focal tubular epithelial cell degeneration, regeneration, and cellular casts. […] These findings were not observed in previous monkey studies, and no similar kidney findings occurred in rodents. Renal findings were determined to be unrelated to lorcaserin treatment by two independent human renal pathologists after reviewing blinded slide sets. In their independent opinions, the findings were not dose related and were consistent with age and focal inflammation or infection. One pathologist attributed the findings of regeneration to a staining artifact, resulting in a bluish cytoplasmic discoloration. If tubular renal epithelial regeneration were artifactual, renal findings of the conducting laboratory would be limited to the high dose. At 2, 10, 50, and 125 mg/kg, the margins were 1.0 and 0.6, 8 and 5, 44 and 31, and 51 and 51 times human exposure at the MRD for males and females, respectively. Renal findings in rodents and monkeys were of uncertain relationship to lorcaserin. Substantial margins over human exposure exist for all renal finding in rodents, and in monkeys according to two expert human renal pathologists. Even assuming the renal findings in monkeys are drug related, the principal findings were focal or multifocal, minimal to mild (1 instance of moderate regeneration at the high dose) renal tubular epithelial regeneration and degeneration that would have had to have been much more severe and diffuse to be of clinical relevance. Based upon adverse events, clinical chemistry and urinalyses in an extensive phase 2 and phase 3 program, there is no evidence of a lorcaserin effect on the kidney in humans.

A value given as a limit tells only on which side of the number the result lay.

For the compound `C[C@H]1CN(S(=O)(=O)O)CCc2ccc(Cl)cc21` [Compound M1, lorcaserin sulfamate], the “Mean Cmax observed in patients” value in series [1] is 196 ng/mL.
Take `C[C@H]1CNCCc2ccc(Cl)cc21` [Lorcaserin, (R)-8-chloro-1-methyl-2,3,4,5-tetrahydro-1H-3-benzazepine]: the NOAEL in series [2] (both sexes, rat, in vivo, rats, 13-week and 6-month studies) is 5 mg/kg/day. For the same compound, the “Single dose that caused death” value in series [2] (rats) turned out to be 1000 mg/kg. The “Exposure multiple relative to human exposure at 10 mg BID” value in series [2] (females) was found to be 2.8; in series [2] (males) it was 1.2; in series [3] (females), 68; in series [3] (males) it was 74. Further, the “Exposure multiple of human exposure at 10 mg BID” value stood at 34 times in series [2] (females) and 22 times in series [2] (males). Besides, in series [2] (rats, 10-day repeat dose studies), the “Doses with no mortality” value is no more than 150 mg/kg/day. Also, the “Doses with modest increases in kidney weights” value in series [2] (rats, 10-day, 28-day and 3-month studies) is no less than 50 mg/kg. Further, the no observed adverse effect level (NOAEL) at 12 months in series [3] (both sexes, cynomolgus monkey, in vivo, oral, monkeys, 12-month study) turned out to be 2 mg/kg/day. The MTD in series [3] (cynomolgus monkey, in vivo, oral, monkeys, repeat dose studies, read-out: Maximum tolerated dose) was 100 to 125 mg/kg/day. Moreover, the “Single dose with dose-limiting emesis” value in series [3] (cynomolgus monkeys) is given as 300 mg/kg. In addition, the “Margin, times human exposure at the MRD” value amounted to 0.6 times in series [3] (monkeys 2 mg/kg, females); 1.0 times in series [3] (monkeys 2 mg/kg, males); 5 times in series [3] (monkeys 10 mg/kg, females); 8 times in series [3] (monkeys 10 mg/kg, males); 31 times in series [3] (monkeys 50 mg/kg, females); 44 times in series [3] (monkeys 50 mg/kg, males). The “Margin, times human exposure at the MRD” value in series [3] (monkeys 125 mg/kg, females) is on record as 51 times; in series [3] (monkeys 125 mg/kg, males), 51 times. Further, the “Animals with focal renal tubular epithelial cell degeneration and/or regeneration (minimal to mild regeneration in renal cortex)” value in series [3] (monkeys 12 months, 2 mg/kg) was 1/8; in series [3] (monkeys 12 months, 10 mg/kg), 2/8; in series [3] (monkeys 12 months, 50 mg/kg), 3/8; in series [3] (monkeys 12 months, 125 mg/kg), 6/8. In addition, the “Females with cystic ovarian follicles” value was 0/4 in series [3] (monkeys 12 months, 2 mg/kg); 1/4 in series [3] (monkeys 12 months, 10 mg/kg); 1/4 in series [3] (monkeys 12 months, 50 mg/kg); 3/4 in series [3] (monkeys 12 months, 125 mg/kg). In addition, the “Animals with hepatic lipidosis” value was 4/8 in series [3] (monkeys 12 months, 2 mg/kg/day); 2/8 in series [3] (monkeys 12 months, 10 mg/kg/day); 3/8 in series [3] (monkeys 12 months, 50 mg/kg/day); 4/8 in series [3] (monkeys 12 months, 250 mg/kg/day). The “Males with cellular casts” value was 1/4 in series [3] (monkeys 12 months, 50 mg/kg) and 1/4 in series [3] (monkeys 12 months, 125 mg/kg). Further, the “Animals with cellular casts” value in series [3] (monkeys 12 months, 125 mg/kg) is 4/4. For the same compound, in series [3] (monkeys 12 months, 125 mg/kg), the “Females with cellular casts” value was 2/4. In addition, in series [3] (monkeys 12 months, 125 mg/kg group), the “Animals with regeneration (incl. moderate)” value is given as 7/8. In addition, the “Doses with dose-dependent decrease in activity and hunched appearance” value in series [3] (monkeys 12 months, both sexes) is no less than 10 mg/kg. In addition, in series [3] (monkeys 12 months, high dose), the “Females with moderate epithelial regeneration” value is 1/4. Further, the “Animals with minimal to mild tubular epithelial degeneration” value in series [3] (monkeys 12 months, high dose group (125 mg/kg)) was 6 of 8. Also, the “Doses at which cholesterol, LDL and HDL decreased” value in series [3] (monkeys, 12-month study) is no less than 10 mg/kg/day. For the same compound, the Lorcaserin-related deaths entry in series [3] (monkeys, 12-month study) is “no lorcaserin-related deaths”. Moreover, the “Doses with reduced weight gain and food consumption” value in series [3] (monkeys, 28-day, 13-week and 12-month studies) is listed as no less than 10 mg/kg/day.

For orientation: NOAEL means the highest tested level that showed no adverse finding.

These data come from patent US8999970B2, “Administration of an anti-obesity compound to individuals with renal impairment” (Arena Pharmaceuticals, Inc., priority 2010, dated 2015).
